Consider four compounds from PMC12030534, “Population Pharmacokinetic Modeling of Total and Unbound Pamiparib in Glioblastoma Patients: Insights into Drug Disposition and Dosing Optimization” (Pharmaceutics, 2025).

pIC50: −log10 of the molar value. Where “and” joins values, the source holds several entries; their conditions need not be identical. Identical values can stand only once. Like-named read-outs stand apart in the source and are kept apart here. Marks after values point to notes of the source that are not given here.

Broadly, the pIC50 is the IC50 on a negative log10 scale, so that one unit is a factor of ten. The LogP is the decadic logarithm of the partition coefficient of the neutral form, usually between octanol and water.

Series [1] deals with SCLC PDX models. On the set-up: method as in PMID 29330466. The settings on record: imaging, cited from earlier work.
On the set-up of series [2]: method as in PMID 33876576. The settings on record: cited from earlier work.
Series [3] is described as follows: Population PK model of total and unbound pamiparib plasma concentrations in glioblastoma patients (Monolix; bootstrap evaluation). Format: in vivo, human. Also on record: Ka_SD: unit not given here. The settings on record: for fraction unbound: oral, 60 mg, read-out: θ4 (Fu); for IIV of CL/F / IIV of Ka / IIV of V/F: (% RSE). The procedure:
The total and unbound pamiparib plasma concentration data used in the population PK analysis were obtained from a phase 0/II study (ClinicalTrials.gov ID: NCT04614909), which enrolled 41 patients with newly diagnosed or recurrent glioblastoma. The protocols were approved by the Institutional Review Board of the Barrow Neurological Institute. Written informed consent was obtained from all participants.
The patients received oral pamiparib (60 mg twice daily) for three days before undergoing surgical tumor resection. Blood samples were collected at predose and at 0.5, 1, 2, 4, 7, and 24 h following the 9th oral dose. Plasma was separated from whole blood by centrifugation at 1000× g and 4 °C for 10 min and then stored at −80 °C until analysis. The total and unbound pamiparib concentrations in plasma samples were quantified using a validated liquid chromatography coupled with tandem mass spectrometry (LC-MS/MS) method.
The population PK model was developed in two steps: (1) basic (structural) model development and (2) covariate model development. All analyses were performed using the nonlinear mixed-effects modeling program MONOLIX version 2024R1 (Lixoft, Antony, France).
The structural model was developed to simultaneously characterize total and unbound pamiparib plasma concentration–time profiles following an oral administration of 9 doses (60 mg, twice daily) in individual glioblastoma patients. A one-compartment model with first-order absorption (without lag time) and first-order elimination was selected to describe the multiple-dose plasma concentration–time data. The primary PK parameters included apparent oral clearance (CL/F), apparent volume of distribution (V/F), absorption rate constant (Ka), and fraction of unbound drug in plasma (Fu). The relationship between total (Cp) and unbound (Cu) drug concentrations was incorporated into the model using the equation Cu = Cp × Fu. All concentration data were log-transformed to stabilize variance and improve model fitting. Population mean PK parameters, interindividual variability, and residual error were assessed in the population PK model. Interindividual variability was modeled using an exponential function, assuming log-normal distribution for all PK parameters.
Various residual error models, including constant, proportional, and combined error models, were evaluated. The combined model, incorporating both proportional and additive error components, was selected as the optimal error model (Equation (1)).(1) yi,j=fti,j,ψi+g(ti,j,ψi,ξ)εi,j Here, ψi is the parameter vector of the structural model f for individual i , and the residual error model is defined by the function g that depends on an additional parameter vector ξ . The residual errors εi,j are standardized Gaussian random variables with a mean of 0 and a standard deviation of 1. In this analysis, the combined error model was defined as g=a+bf^c , where the function g consists of a constant term, a, and a term proportional to the structural model f , with b as the proportionality constant. The parameter vector ξ includes a and b, while c is fixed at 1 by default.
Population mean PK parameters were estimated using the Stochastic Approximation Expectation–Maximization (SAEM) algorithm, a robust method for handling complex nonlinear mixed-effects models. Individual patients’ PK parameter estimates were obtained through post hoc Bayesian estimation, utilizing the conditional distributions derived from the Markov Chain Monte Carlo (MCMC) procedure.
The covariate model was developed using a stepwise approach to systematically identify and incorporate significant covariate effects. Initial screening for potential covariates was conducted using generalized additive modeling (GAM) with R version 4.4.1. The candidate covariates, listed in Table 1, were evaluated based on their relationship with Bayesian-estimated individual pharmacokinetic (PK) parameters from the structural model, including CL/F, V/F, Ka, and Fu. […]

Series [4] has as its system P-glycoprotein (P-gp). Also on record: method as in PMID 32652442, PMID 39575553. The settings on record: cited from earlier work.
In series [5] the test system is PARP. On the set-up: method as in PMID 33264017. The settings on record: used as denominator of target engagement ratio; read-out: IC50 for PARP inhibition; cited from earlier work.
For series [6], the system named is PARP. Also on record: method as in PMID 23118055. The settings on record: cited from earlier work.
The conditions of series [7]: cited from earlier work.
Series [8] relates to ABCG2. On the set-up: method as in PMID 32652442, PMID 39575553. The settings on record: cited from earlier work.
The conditions of series [9]: cited from earlier work. This is another data set of the same source.
For series [10] the following is noted: human liver microsomes; cited from earlier work. In general terms: Liver microsomes are a subcellular fraction often used to study metabolism.
Where [11] appears, read: total pamiparib, base model, 60 mg twice daily oral.
Where [12] appears, read: total pamiparib, base model, population mean (% RSE).
Setting [13] is: total pamiparib, bootstrap mean.
Where [14] appears, read: total pamiparib, final covariate model.
The mark [15] stands for this setting: total pamiparib, final covariate model, population mean.
The mark [16] stands for this setting: total pamiparib, final covariate model, population mean (% RSE in Table 2).
[17] abbreviates: unbound pamiparib, base model, population mean (% RSE).
[18] abbreviates: unbound pamiparib, bootstrap mean.
Where [19] appears, read: unbound pamiparib, final covariate model.
[20] abbreviates: unbound pamiparib, final covariate model, population mean.
The mark [21] stands for this setting: unbound pamiparib, final covariate model, population mean (% RSE in Table 2).

As to `O=C(c1cc(Cc2n[nH]c(=O)c3ccccc23)ccc1F)N1CCN(C(=O)C2CC2)CC1` [olaparib], the “dose for complete target engagement” value in series [1] (~5-fold of ED50) is listed as 15 mg/kg. Moreover, the “dose for 50% target engagement (ED50)” value in series [1] is recorded as 3.17 mg/kg.

Regarding `C[C@]12CCCN1CC1=NNC(=O)c3cc(F)cc4[nH]c2c1c34` [pamiparib], the “fecal excretion, share of total radioactivity” value in [2] (pamiparib and its metabolites) was roughly 27%. For the same compound, in series [2] (pamiparib and its metabolites), the “renal excretion, share of total radioactivity” value is “approximately 58%”. In addition, in series [2] (patients with solid tumors), the “unchanged pamiparib as share of total radioactivity in plasma” value was 67%. In addition, the fraction unbound in [3] (human, plasma, total pamiparib, base model, population mean (% RSE)) turned out to be 0.042; in series [3] (human, plasma, total pamiparib, bootstrap mean), 0.041; in [3] (human, plasma, total pamiparib, final covariate model, population mean (% RSE in Table 2)), 0.041; in series [3] (human, plasma, unbound pamiparib, base model, population mean (% RSE)), 0.042; in series [3] (human, plasma, unbound pamiparib, bootstrap mean) it was 0.041; in [3] (human, plasma, unbound pamiparib, final covariate model, population mean (% RSE in Table 2)), 0.042. Also, the half-life in series [3] (human, plasma, glioblastoma patients, 60 mg twice daily oral, read-out: population mean elimination half-life (T1/2) (converted)) was roughly 12 h. Moreover, the TV_CL/F in series [3] (setting [11]) is 2.73 L/h; in series [3] (total pamiparib, final covariate model, at median age 60), 2.59 L/h and 2.59 ^‡ L/h; in series [3] (unbound pamiparib, base model), 65.0 L/h; in [3] (unbound pamiparib, final covariate model, at median age 60), 62.5 ^‡ L/h. Moreover, the TV_V/F in series [3] (setting [11]) was 44 L; in [3] (total pamiparib, final covariate model, at median PCC 111.5), 44 L and 44 ^† L; in series [3] (unbound pamiparib, base model), 1017 L; in series [3] (unbound pamiparib, final covariate model, at median PCC 111.5) it was 1060 ^† L. Also, the TV_KA was found to be 1.64 h⁻¹ in [3] (total pamiparib, base model, 60 mg twice daily oral, glioblastoma patients); 1.58 h⁻¹ in series [3] (total pamiparib, final covariate model, 60 mg twice daily oral); 1.55 h⁻¹ in series [3] (unbound pamiparib, base model, 60 mg twice daily oral); 1.7 h⁻¹ in series [3] (setting [19]). Further, the “IIV of CL/F” value in series [3] (total pamiparib, base model) is 53 (11) %; in series [3] (setting [14]), 50% and 50 (11) %; in series [3] (unbound pamiparib, base model), 54 (11) %; in series [3] (setting [19]), 52(11) %. Besides, the “IIV of Ka” value in [3] (total pamiparib, base model) is 397 (18) %; in [3] (setting [14]), 410 (20) %; in series [3] (unbound pamiparib, base model), 612 (21) %; in series [3] (setting [19]), 380 (20) %. The “IIV of V/F” value in series [3] (total pamiparib, base model) is given as 53 (16) %; in [3] (setting [14]), 41 (17) %; in series [3] (unbound pamiparib, base model) it was 50 (17) %; in series [3] (setting [19]) it was 41 (19) %. For the same compound, the TV_Fu in series [3] (total pamiparib, base model, fraction unbound in plasma) amounted to 0.042; in series [3] (total pamiparib, final covariate model, fraction unbound in plasma), 0.041; in series [3] (unbound pamiparib, base model), 0.042; in series [3] (setting [19]), 0.042. In addition, the “θ1 (Ka)” value is 1.64 (42) h^−1 in series [3] (setting [12]); 1.71 h⁻¹ in series [3] (total pamiparib, bootstrap mean (500 replicates)); 1.58 (42) h^−1 and 1.58 h^−1 in series [3] (setting [16]); 1.55 (51) h^−1 in series [3] (setting [17]); 1.86 h⁻¹ in [3] (unbound pamiparib, bootstrap mean (500 replicates)); 1.7 (44) h^−1 and 1.7 h^−1 in [3] (setting [21]). The “θ2 (V/F)” value in series [3] (setting [12]) was 44 (9.7) L; in series [3] (setting [13]), 17 L; in series [3] (setting [16]), 15 (28) L and 15 L; in series [3] (setting [17]), 1017 (9.1) L; in [3] (setting [18]) it was 441 L; in [3] (setting [21]) it was 402 (28) L and 402 L. Also, the “θ3 (CL/F)” value is 2.73 (8.0) L/h in series [3] (setting [12]) and 65.0 (8.2) L/h in series [3] (setting [17]). Also, the Fu_SD in series [3] (setting [13]) amounted to 0.11; in series [3] (setting [15]) it was 0.12; in series [3] (setting [18]), 0.11; in [3] (setting [20]), 0.11. In addition, the Ka_SD was 1.6 in [3] (setting [13]), 1.7 in [3] (setting [15]), 1.66 in series [3] (setting [18]) and 1.66 in series [3] (setting [20]). The V/F_SD in series [3] (setting [13]) worked out at 0.35; in series [3] (setting [15]), 0.39; in series [3] (setting [18]), 0.35; in series [3] (setting [20]) it was 0.39. Besides, the “β1 (PCC)” value was 0.0089 in series [3] (setting [13]) and 0.0083 in series [3] (setting [18]). In addition, the results for the “β2 (Age)” value in series [3] (setting [13]) and in [3] (setting [18]) were −0.017 and −0.016, respectively. Moreover, the “substrate of P-glycoprotein (P-gp) / ABCB1” value in series [4] is given as “not a substrate”. For the same compound, the pIC50 in series [5] is ~9.00 and 9.00. In addition, in [6] (compared with other PARP inhibitors), the PARP trapping potency entry is “surpassing olaparib and rucaparib but slightly weaker than niraparib and much weaker than talazoparib”. Moreover, in [7], the “maximum tolerated dose in monotherapy” value is given as 60 mg BID. For the same compound, in [7] (first in-human study BGB-290-AU-002), the T1/2 is recorded as 13 h. The “substrate of efflux transporter ABCG2” value in series [8] is “not a substrate”. Besides, in [9], the log partition coefficient (LogP) is 2.03. For the same compound, the intrinsic clearance result in [10] is given as “low”.

As to `Cn1ncnc1[C@H]1c2n[nH]c(=O)c3cc(F)cc(c23)N[C@@H]1c1ccc(F)cc1` [talazoparib], the “PARP trapping potency relative to olaparib” value in series [6] was ~ 100 fold.

For the compound oxy-dehydro pamiparib [M3], the metabolite abundance result in [2] (human plasma, urine, and feces) was “most abundant metabolite”.
